Like-named read-outs stand apart in the source and are kept apart here.
System: NLRP3 inflammasome
Experiment: IL-1β Secretion Assay (NLRP3-dependent IL-1β secretion in PMA-differentiated THP-1 cells, nigericin activation, HTRF)
Assay type: cell-based
Details: 100 ng/mL PMA 24 h, compound 20 h, 2.5 μM Nigericin 3 h, read-out: IC50 IL-1β Inhibition
Experimental: Cells were washed 1× with 100 ul PBS and replaced with fresh RPMI+5% FBS. Compounds were serial diluted in DMSO with 3 fold dilution for a total of 7 concentrations.
Compounds, once produced and prepared according to the present invention, can be assessed in variety of assays to characterize their activities. […] IC50 values of IL1β inhibition were calculated from the plot of percentage of inhibition versus the inhibitor concentration by a logistics fit. TABLE I depict examples of compounds according to generic Formulae I. Data which is <1 nM is listed as *****; data 1-10 nM is listed as ****; data 10-100 nM is listed as ***, data 100-300 nM is listed as **, data >300 nM is listed as *.

[1] = Homo sapiens, THP-1, THP-1 cells

Cc1cc(O)c(-c2nnc(N[C@@H]3CCCN(C)C3)c3cnccc23)cc1F [Compound I-88]
IC50 [1]: < 1 nM

CN1C[C@H](F)C[C@@H](Nc2nnc(-c3ccc(C(F)(F)F)cc3O)c3cncn23)C1 [Compound I-528]
IC50 [1]: < 1 nM

CN1CCC[C@@H](Nc2nnc(-c3ccc(C(F)(F)F)cc3C3CC3)c3ccncc23)C1 [Compound I-194, (R)-1-(2-Cyclopropyl-4-(trifluoromethyl)phenyl)-N-(1-methylpiperidin-3-yl)pyrido[3,4-d]pyridazin-4-amine]
IC50 [1]: 1 to 10 nM

CN1CCC[C@@H](Nc2nnc(-c3ccc(C(F)(F)F)cc3-c3ccn(C)n3)c3ccncc23)C1 [Compound I-232]
IC50 [1]: 10 to 100 nM

COc1cc(O)c(-c2nnc(N[C@@H]3C[C@@H](F)CN(C)C3)n3cccc23)c(F)c1 [Compound I-502]
IC50 [1]: < 1 nM

COc1ccc(-c2nnc(N[C@H]3C[C@](C)(O)C3)n3cccc23)c(OC(F)F)c1 [Compound I-472]
IC50 [1]: 10 to 100 nM

COc1cc(C(F)(F)F)ccc1-c1nnc(N2CCCC(N(C)C)C2)c2ccncc12 (stereo not drawn) [Compound I-162]
IC50 [1]: 10 to 100 nM

Oc1cc(C(F)(F)F)ccc1-c1nnc(NC[C@@H]2CCCN2)c2cnccc12 [Compound I-111]
IC50 [1]: 1 to 10 nM

C[C@]1(O)C[C@@H](Nc2nnc(-c3ccc(Br)cc3O)c3ccnn23)C1 [Compound I-544]
IC50 [1]: 1 to 10 nM

Cc1ccc(-c2nnc(N[C@@H]3CCCN(C)C3)c3cnccc23)c(O)n1 [Compound I-78]
IC50 [1]: 10 to 100 nM

COc1ccc(-c2nnc(N[C@H]3CCCN(C)C3)c3cnccc23)c(C(C)C)c1 [Compound I-296]
IC50 [1]: 1 to 10 nM

CN1CCC[C@@H](Nc2nnc(-c3ccc(C(F)(F)F)cc3OC(F)F)c3cccn23)C1 [Compound I-322, 1-[2-(Difluoromethoxy)-4-(trifluoromethyl)phenyl]-N-[(3R)-1-methyl-3-piperidyl]pyrrolo[1,2-d][1,2,4]triazin-4-amine]
IC50 [1]: < 1 nM

Oc1cc(C2CC2)ccc1-c1nnc(N[C@@H]2CCCN(C3CCOCC3)C2)n2cccc12 [Compound I-340]
IC50 [1]: 1 to 10 nM

COc1cc(C(F)(F)F)ccc1-c1nnc(N[C@@H]2CCCN(CCOC(F)F)C2)c2cnccc12 [Compound I-276]
IC50 [1]: 10 to 100 nM

CCN1CCC[C@@H](Nc2nnc(-c3ccc(OC(F)(F)F)cc3OC(F)F)c3cccn23)C1 [Compound I-565]
IC50 [1]: 1 to 10 nM

Cc1cc(C2CC2)ccc1-c1nnc(N[C@@H]2CCCN(C)C2)c2cnccc12 [Compound I-272]
IC50 [1]: 1 to 10 nM

COc1cc(C(F)(F)F)ccc1-c1nnc(N[C@@H]2CCCN(C)C2)n2cncc12 [Compound I-349, 1-[2-Methoxy-4-(trifluoromethyl)phenyl]-N-[(3R)-1-methyl-3-piperidyl]imidazo[1,5-d][1,2,4]triazin-4-amine]
IC50 [1]: 1 to 10 nM

CCN1CCC[C@H](Nc2nnc(-c3c(O)cc(C4CC4)cc3F)c3cc(C)nn23)C1 [Compound I-554]
IC50 [1]: < 1 nM

CN1CCC[C@@H](Nc2nnc(-c3ccc(C(F)(F)F)cc3OC(F)F)c3c(F)ccn23)C1 [Compound I-394]
IC50 [1]: 1 to 10 nM

COc1cc(O)c(-c2nnc(N[C@H]3C[C@@](C)(O)C3)n3cccc23)c(F)c1 [Compound I-562]
IC50 [1]: 1 to 10 nM

CN1CCC[C@@H](Nc2nnc(-c3ccc(OC(F)(F)F)cc3O)c3c(F)ccn23)C1 [Compound I-441]
IC50 [1]: 1 to 10 nM

Oc1cc(C(F)(F)F)cc(F)c1-c1nnc(N[C@@H]2CCCN(C3CCOCC3)C2)n2cccc12 [Compound I-430]
IC50 [1]: 1 to 10 nM

CN1CCC[C@@H](Nc2nnc(-c3c(O)cc(C4CC4)cc3F)c3ccncc23)C1 [Compound I-196]
IC50 [1]: < 1 nM

OCCN1CCC[C@@H](Nc2nnc(-c3ccc(C(F)(F)F)cc3O)c3cncn23)C1 [Compound I-350]
IC50 [1]: 1 to 10 nM

OCCN1CCC[C@@H](Nc2nnc(-c3ccc(C(F)(F)F)cc3O)c3cccn23)C1 [Compound I-353]
IC50 [1]: 1 to 10 nM

CN1CCC[C@@H](Nc2nnc(-c3ccc(Br)cc3OC(F)(F)F)c3cccn23)C1 [Compound I-504]
IC50 [1]: < 1 nM

Oc1cc(C(F)(F)F)ccc1-c1nnc(NC[C@@H]2CCCN2)c2ccncc12 [Compound I-110]
IC50 [1]: < 1 nM

CC(C)c1ccc(-c2nnc(N[C@@H]3CCCN(C)C3)c3cnccc23)c(C(C)C)c1 [Compound I-207]
IC50 [1]: 1 to 10 nM

Oc1cc(C(F)(F)F)ccc1-c1nnc(N[C@H]2CNCCOC2)c2cnccc12 [Compound I-252]
IC50 [1]: 10 to 100 nM

CC(C)(O)CN1CCC[C@@H](Nc2nnc(-c3ccc(C(F)(F)F)cc3O)c3ccncc23)C1 [Compound I-286]
IC50 [1]: < 1 nM

CN1CCC[C@@H](Nc2nnc(-c3ccc(C(F)(F)F)cc3OC(F)F)c3c2CCC3)C1 [Compound I-236]
IC50 [1]: 1 to 10 nM

C[C@@H](O)CNc1nnc(-c2c(O)cc(C3CC3)cc2F)c2cccn12 [Compound I-496]
IC50 [1]: 10 to 100 nM

CN1CCN(CCNc2nnc(-c3ccc(C(F)(F)F)cc3O)c3ccccc23)CC1 [Compound I-161]
IC50 [1]: 10 to 100 nM

CC(C)(O)CN1CCC[C@@H](Nc2nnc(-c3ccc(C(F)(F)F)cc3C(F)(F)F)c3cccn23)C1 [Compound I-470]
IC50 [1]: 10 to 100 nM

CN1CCC[C@@H](Nc2nnc(-c3c(F)ccc(Cl)c3O)c3ccncc23)C1 [Compound I-209]
IC50 (THP-1 cells): 1 to 10 nM

COc1ccc(-c2nnc(N[C@@H]3CCCN(C)C3)n3cccc23)c(O)c1 [Compound I-357]
IC50 [1]: 1 to 10 nM

Cc1cc(F)c(-c2nnc(N[C@@H]3CCCN(CCO)C3)n3cccc23)c(OC(F)F)c1 [Compound I-463]
IC50 [1]: 10 to 100 nM

CN1CCC[C@@H](Nc2nnc(-c3c(F)cc(C(F)(F)F)cc3OC(F)F)c3cccn23)C1 [Compound I-487]
IC50 [1]: 1 to 10 nM

CN1C[C@H](O)C[C@@H](Nc2nnc(-c3ccc(C(F)(F)F)cc3O)c3c(F)ccn23)C1 [Compound I-597]
IC50 [1]: 10 to 100 nM

CN1CCC[C@@H](Nc2nnc(-c3ccc(-c4ccn(C)c4)cc3O)c3ccccc23)C1 [Compound I-94]
IC50 [1]: 1 to 10 nM

OCCN1CCC[C@@H](Nc2nnc(-c3ccc(Cl)cc3O)c3cccn23)C1 [Compound I-369]
IC50 [1]: 1 to 10 nM

CN1CCC[C@@H](Oc2nnc(-c3ccc(C(F)(F)F)cc3O)c3ccccc23)C1 [Compound I-29]
IC50 [1]: 1 to 10 nM

C[C@@H]1COCCN1CCNc1nnc(-c2ccc(C(F)(F)F)cc2O)c2ccccc12 [Compound I-147]
IC50 [1]: 10 to 100 nM

CCOc1cc(O)c(-c2nnc(N[C@H]3C[C@@](C)(O)C3)n3cccc23)c(F)c1 [Compound I-629]
IC50 [1]: 10 to 100 nM

OCCN1CCC[C@@H](Nc2nnc(-c3c(O)cc(C4CC4)cc3F)c3ccncc23)C1 [Compound I-284, 5-Cyclopropyl-3-fluoro-2-[4-[[(3R)-1-(2-hydroxyethyl)-3-piperidyl]amino]-pyrido[3,4-d]pyridazin-1-yl]phenol]
IC50 [1]: < 1 nM

CC(C)(O)CNc1nnc(-c2ccc(OC(F)(F)F)cc2O)c2cccn12 [Compound I-438]
IC50 [1]: 100 to 300 nM

CN1CCC[C@@H](Nc2nnc(-c3ccc(C4CC4)cc3C(F)(F)F)c3ccncc23)C1 [Compound I-158]
IC50 [1]: < 1 nM

CN1CCC[C@@H](Nc2nnc(-c3ccc(N4CCCC4)cc3O)c3ccccc23)C1 [Compound I-93]
IC50 [1]: 1 to 10 nM

CCN1CCC[C@@H](Nc2nnc(-c3ccc(C(F)(F)F)cc3O)c3cncn23)C1 [Compound I-360]
IC50 [1]: < 1 nM

Cc1cc(C)c(-c2nnc(N[C@@H]3CCCN(C)C3)n3cccc23)c(O)c1 [Compound I-477]
IC50 [1]: 1 to 10 nM

CN1CCC[C@@H](Nc2nnc(-c3ccc(C(F)(F)F)cc3O)c3cc(F)ccc23)C1 [Compound I-9]
IC50 [1]: 1 to 10 nM

— US20240262806A1, “INHIBITORS OF NLRP3” (PTC THERAPEUTICS, INC., priority 2021, published 2024)
